Assay [1] addresses T1, M-phase inducer phosphatase 3 (Homo sapiens, UniProt P30307).
T1 sequence (P30307 whole entry): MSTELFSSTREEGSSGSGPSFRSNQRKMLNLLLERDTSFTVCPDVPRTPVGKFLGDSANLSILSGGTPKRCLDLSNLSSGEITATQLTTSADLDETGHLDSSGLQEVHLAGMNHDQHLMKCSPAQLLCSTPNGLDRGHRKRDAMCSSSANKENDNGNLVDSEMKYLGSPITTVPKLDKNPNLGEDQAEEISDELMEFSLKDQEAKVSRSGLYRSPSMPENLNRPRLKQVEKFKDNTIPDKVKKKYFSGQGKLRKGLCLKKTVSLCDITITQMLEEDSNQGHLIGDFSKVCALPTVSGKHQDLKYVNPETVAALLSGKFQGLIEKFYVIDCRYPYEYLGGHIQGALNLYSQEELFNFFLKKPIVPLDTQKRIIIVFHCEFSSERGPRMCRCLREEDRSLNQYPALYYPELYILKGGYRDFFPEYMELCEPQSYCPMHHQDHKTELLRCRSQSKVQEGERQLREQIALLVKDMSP
Kind of assay: Inhibition of CDC25C.

Assay [2] deals with T2, M-phase inducer phosphatase 1 (Homo sapiens, UniProt P30304).
T2 sequence (P30304 whole entry): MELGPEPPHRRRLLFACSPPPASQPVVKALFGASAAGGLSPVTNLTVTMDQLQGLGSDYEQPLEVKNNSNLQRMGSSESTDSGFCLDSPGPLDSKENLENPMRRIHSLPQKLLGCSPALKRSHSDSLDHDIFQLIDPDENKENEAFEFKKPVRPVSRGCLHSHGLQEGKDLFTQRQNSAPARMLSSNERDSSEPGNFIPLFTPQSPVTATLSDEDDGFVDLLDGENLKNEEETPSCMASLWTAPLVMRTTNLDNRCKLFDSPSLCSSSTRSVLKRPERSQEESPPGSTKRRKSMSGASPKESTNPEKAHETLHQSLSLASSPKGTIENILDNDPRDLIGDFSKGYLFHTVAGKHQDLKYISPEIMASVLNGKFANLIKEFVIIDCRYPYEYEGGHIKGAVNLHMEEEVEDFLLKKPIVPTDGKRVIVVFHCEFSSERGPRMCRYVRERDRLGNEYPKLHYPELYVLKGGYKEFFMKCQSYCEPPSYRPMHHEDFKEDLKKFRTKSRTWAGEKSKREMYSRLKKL
Kind of assay: Inhibition of CDC25A.

Assay [3] deals with T3, Dual specificity protein phosphatase 6 (Homo sapiens, UniProt Q16828).
T3 sequence (Q16828 whole entry): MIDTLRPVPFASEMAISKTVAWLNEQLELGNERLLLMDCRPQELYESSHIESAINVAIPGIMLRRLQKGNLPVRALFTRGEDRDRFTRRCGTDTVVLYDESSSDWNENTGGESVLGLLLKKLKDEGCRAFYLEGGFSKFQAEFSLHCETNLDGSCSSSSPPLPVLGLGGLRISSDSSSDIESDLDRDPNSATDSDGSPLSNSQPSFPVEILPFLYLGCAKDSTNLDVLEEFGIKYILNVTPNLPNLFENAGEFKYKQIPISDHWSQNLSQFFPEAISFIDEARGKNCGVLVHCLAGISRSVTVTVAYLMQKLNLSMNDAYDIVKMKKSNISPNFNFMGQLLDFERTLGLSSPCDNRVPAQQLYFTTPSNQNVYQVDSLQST
Kind of assay: Inhibition of MKP3.

Assay [4] addresses Dual specificity protein phosphatase 3 (Homo sapiens, UniProt P51452). Kind of assay: Inhibition of VHR.
In assay [5] the target is T4, Tyrosine-protein phosphatase non-receptor type 1 (Homo sapiens, UniProt P18031).
T4 sequence (P18031 whole entry): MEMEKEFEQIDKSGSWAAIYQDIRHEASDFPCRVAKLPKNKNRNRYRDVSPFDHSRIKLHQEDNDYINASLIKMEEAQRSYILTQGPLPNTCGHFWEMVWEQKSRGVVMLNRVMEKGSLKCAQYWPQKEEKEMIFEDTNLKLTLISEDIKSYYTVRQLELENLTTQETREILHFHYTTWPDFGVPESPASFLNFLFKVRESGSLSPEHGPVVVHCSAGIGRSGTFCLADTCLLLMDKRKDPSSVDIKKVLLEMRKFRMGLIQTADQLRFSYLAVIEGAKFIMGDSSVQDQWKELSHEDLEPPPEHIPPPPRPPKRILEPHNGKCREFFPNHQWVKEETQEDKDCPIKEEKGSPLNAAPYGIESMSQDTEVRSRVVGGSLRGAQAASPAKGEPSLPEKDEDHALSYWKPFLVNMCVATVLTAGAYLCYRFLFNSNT
Kind of assay: Inhibition of PTP1B.

For assay [6], the target named is T5, Dual specificity protein phosphatase 1 (Homo sapiens, UniProt P28562).
T5 sequence (P28562 whole entry): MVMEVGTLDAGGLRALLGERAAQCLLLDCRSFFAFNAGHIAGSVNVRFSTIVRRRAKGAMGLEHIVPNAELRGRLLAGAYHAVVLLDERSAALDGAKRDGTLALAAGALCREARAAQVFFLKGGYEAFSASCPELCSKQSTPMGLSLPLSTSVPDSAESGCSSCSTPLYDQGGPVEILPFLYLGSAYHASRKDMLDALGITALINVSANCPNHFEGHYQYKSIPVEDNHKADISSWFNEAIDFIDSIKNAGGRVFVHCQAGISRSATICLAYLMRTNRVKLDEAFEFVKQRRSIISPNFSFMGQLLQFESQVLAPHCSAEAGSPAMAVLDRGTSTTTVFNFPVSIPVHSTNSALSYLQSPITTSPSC
Kind of assay: Inhibition of MKP1.

The target of assay [7] is T6, M-phase inducer phosphatase 2 (Homo sapiens, UniProt P30305).
T6 sequence (P30305 whole entry): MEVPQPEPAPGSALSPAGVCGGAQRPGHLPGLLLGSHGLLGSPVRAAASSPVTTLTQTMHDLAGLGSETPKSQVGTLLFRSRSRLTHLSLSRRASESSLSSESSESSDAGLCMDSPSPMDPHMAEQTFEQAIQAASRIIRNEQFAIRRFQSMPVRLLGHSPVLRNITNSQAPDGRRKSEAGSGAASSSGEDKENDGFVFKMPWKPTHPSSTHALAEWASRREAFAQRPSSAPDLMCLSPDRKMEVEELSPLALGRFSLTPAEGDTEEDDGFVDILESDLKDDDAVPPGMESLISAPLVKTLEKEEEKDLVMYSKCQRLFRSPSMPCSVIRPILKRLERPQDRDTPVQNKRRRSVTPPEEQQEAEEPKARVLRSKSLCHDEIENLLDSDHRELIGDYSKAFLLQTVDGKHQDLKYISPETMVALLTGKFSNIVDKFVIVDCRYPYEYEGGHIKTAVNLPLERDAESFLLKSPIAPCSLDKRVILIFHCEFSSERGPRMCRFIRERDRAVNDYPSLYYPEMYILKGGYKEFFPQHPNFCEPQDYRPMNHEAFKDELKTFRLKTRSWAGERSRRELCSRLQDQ
Kind of assay: Inhibition of CDC25B.

A further assay relates to HL-60. Kind of assay: cells. The note with it: Homo sapiens, HL-60, 48 h.

Sequence of Dual specificity protein phosphatase 3 (P51452 whole entry): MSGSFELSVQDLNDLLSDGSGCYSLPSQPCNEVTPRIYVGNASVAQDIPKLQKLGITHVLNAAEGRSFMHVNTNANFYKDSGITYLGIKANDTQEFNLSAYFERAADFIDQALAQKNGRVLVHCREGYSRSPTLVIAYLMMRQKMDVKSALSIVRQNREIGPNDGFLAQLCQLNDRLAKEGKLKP

The IC50 is the point on the concentration scale where inhibition reaches its midpoint. Low values mean greater potency in that assay, high ones weaker potency in that assay. With `CCCCCCCCCCCCCCCC(NCc1ccccc1C)=C1C(=O)OC(CO)C1=O` (mixture of isomers), the IC50 was above 100 µM in assay [1]; 12.7 µM in assay [2]; above 100 µM in assay [3]; 8.99 µM in assay [4]; above 100 µM in assay [5]; above 100 µM in assay [6]. In assay [7], this molecule yielded an IC50 of 8.61 µM.
For `CCCCCCCCCCCCCCCC(NCc1cccc(Cl)c1)=C1C(=O)OC(CO)C1=O` (mixture of isomers), the IC50 in assay [1] is above 100 µM; in assay [2], above 100 µM; in the assay with HL-60, 12 µM; in assay [3], above 100 µM; in assay [4] it was 1.43 µM; in assay [5], above 100 µM. The IC50 in assay [6] and in assay [7] was above 100 µM each time.
On to `CCCCCCCCCCCCCCCC(NCc1cccc(F)c1)=C1C(=O)OC(CO)C1=O` (mixture of isomers), for which the IC50 in assay [1] was 78.2 µM; in assay [2] it was 6.22 µM; in assay [3] it was above 100 µM; in assay [4] it was 4.69 µM; in assay [5] it was 83.7 µM; in assay [6], above 100 µM. Moreover, half-maximal inhibition in assay [7] (IC50) was put at 5.13 µM.
`CCCCCCCCCCCCCCCC(NCc1cccc(O)c1)=C1C(=O)OC(CO)C1=O` (mixture of isomers): the IC50 was above 100 µM in assay [1]; 15.4 µM in assay [2]; above 100 µM in assay [3]; 11.1 µM in assay [4]; above 100 µM in assay [5]; above 100 µM in assay [6]. The same molecule registered an IC50 in assay [7] of 3.15 µM.
Take `CCCCCCCCCCCCCCCC(NCc1cccc(OC)c1)=C1C(=O)OC(CO)C1=O` (mixture of isomers): the IC50 is above 100 µM in assay [1]; 10.2 µM in assay [2]; above 100 µM in assay [3]; 5.53 µM in assay [4]; above 100 µM in assay [5]; above 100 µM in assay [6]. Besides, the IC50 in assay [7] stood at 8.31 µM.
`CCCCCCCCCCCCCCCC(NCc1cccc(N(C)C)c1)=C1C(=O)OC(CO)C1=O` (mixture of isomers): the IC50 is above 100 µM in assay [1]; 11.4 µM in assay [2]; above 100 µM in assay [3]; 5.13 µM in assay [4]; above 100 µM in assay [5]; above 100 µM in assay [6]. In assay [7], the IC50 is 6.55 µM.
Regarding `CCCCCCCCCCCCCCCC(NCc1ccc(C)cc1)=C1C(=O)OC(CO)C1=O` (mixture of isomers), the IC50 was 56.7 µM in assay [1]; 7.35 µM in assay [2]; 19.1 µM with HL-60; above 100 µM in assay [3]; 2.68 µM in assay [4]; above 100 µM in assay [5]. Further, the IC50 in assay [6] is above 100 µM; in assay [7], 3.33 µM.
On to `CCCCCCCCCCCCCCCC(NCc1ccc(Cl)cc1)=C1C(=O)OC(CO)C1=O` (mixture of isomers), for which the IC50 in assay [1] was above 100 µM; in assay [2], 6.25 µM; in assay [3], above 100 µM; in assay [4] it was 3.63 µM; in assay [5], above 100 µM; in assay [6], above 100 µM. The midpoint of inhibition in assay [7], the IC50, lay at 5.52 µM.
`CCCCCCCCCCCCCCCC(NCc1ccc(F)cc1)=C1C(=O)OC(CO)C1=O` (mixture of isomers): the IC50 was above 100 µM in assay [1]; 10.7 µM in assay [2]; above 100 µM in assay [3]; above 100 µM in assay [5]; above 100 µM in assay [6]; 13.1 µM in assay [7].
For the molecule `CCCCCCCCCCCCCCCC(NCc1ccc(O)cc1)=C1C(=O)OC(CO)C1=O` (mixture of isomers), the 50% inhibitory concentration (IC50) in assay [1] was 44.1 µM; in assay [2], 6.86 µM; in assay [3], above 100 µM; in assay [4], 9.93 µM; in assay [5], 68.1 µM; in assay [6] it was above 100 µM. The IC50 in assay [7] came to 4.23 µM.
On to `CCCCCCCCCCCCCCCC(NCc1ccc(OC)cc1)=C1C(=O)OC(CO)C1=O` (mixture of isomers), for which the IC50 in assay [1] is above 100 µM; in assay [2], 11.7 µM; in assay [3], above 100 µM; in assay [4] it was 6.77 µM; in assay [5], above 100 µM; in assay [6], above 100 µM. The IC50 in assay [7] was 23.8 µM.
On to `CCCCCCCCCCCCCCCC(NCc1ccccc1Cl)=C1C(=O)OC(CO)C1=O` (mixture of isomers), for which the half-maximal inhibitory concentration (IC50) is above 100 µM in assay [1]; 12.3 µM in assay [2]; above 100 µM in assay [3]; 10.2 µM in assay [4]; above 100 µM in assay [5]; above 100 µM in assay [6]. In addition, the IC50 in assay [7] worked out at 13.5 µM.
`CCCCCCCCCCCCCCCC(NCc1ccccc1F)=C1C(=O)OC(CO)C1=O` (mixture of isomers): the IC50 was 47.1 µM in assay [1]; 12.6 µM in assay [2]; above 100 µM in assay [3]; 8.93 µM in assay [4]; above 100 µM in assay [5]; above 100 µM in assay [6].
Consider `CCCCCCCCCCCCCCCC(NCc1ccccc1OC)=C1C(=O)OC(CO)C1=O` (mixture of isomers), for which the half-inhibitory concentration (IC50) in assay [1] is above 100 µM; in assay [2] it was 19 µM; in assay [3], above 100 µM; in assay [4] it was 6.6 µM; in assay [5], above 100 µM; in assay [6], above 100 µM. This molecule gave an IC50 in assay [7] of 12.1 µM.
Regarding `CCCCCCCCCCCCCCCC(NCc1ccccc1N(C)C)=C1C(=O)OC(CO)C1=O` (mixture of isomers), the half-inhibitory concentration (IC50) in assay [1] is above 100 µM; in assay [2], 8.5 µM; in assay [3], above 100 µM; in assay [4] it was 5.19 µM; in assay [5], above 100 µM; in assay [6], above 100 µM. The same molecule gave an IC50 in assay [7] of 5.75 µM.

The values above are taken from ChEMBL document CHEMBL2062477, “Dual-Specificity Phosphatase CDC25A/B Inhibitor Identified from a Focused Library with Nonelectrophilic Core Structure” (ACS Med Chem Lett, 2012).
